“And” between values parts separate entries of the source, which are not always exact repeats. Equal values may be shown once.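 Step 1: Grow cells in 96-well plates. Step 2: Expose to compound for 48 hours at 5 concentrations. Step 3: Interpolate endpoints linearly; if unreached, use highest concentration. GI50 = concentration required for 50% inhibition of growth. Definition used: TGI = concentration required for complete inhibition of growth.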
Assays:
Assay in all cases: NCI anticancer screen, dose series, 48 h
[1] = test system: HS 578T breast
[2] = test system: NCI/ADR-RES ovarian
[3] = test system: MOLT-4 leukemia
[4] = test system: SN12C renal
[5] = test system: 786-0 renal
[6] = test system: ACHN renal
[7] = test system: SF-295 CNS
[8] = test system: DU-145 prostate
[9] = test system: A549 NSCLC
[10] = test system: A498 renal

Row | Structure (SMILES) | GI50 [1] | TGI [1] | GI50 [2] | TGI [2] | GI50 [3] | TGI [4] | GI50 [5] | TGI [5] | GI50 [6] | TGI [6] | TGI [7] | GI50 [8] | TGI [8] | TGI [9] | TGI [3] | TGI [10] | GI50 [4] | GI50 [10] | GI50 [7] | GI50 [9]
1 | CC(=O)OCC1OC([S-])C(OC(C)=O)C(OC(C)=O)C1OC(C)=O.[Au+].c1ccc(CN2[CH-]N(Cc3ccccc3)C(c3ccccc3)=C2c2ccccc2)cc1 | 2.62 µM and 0.396 µM | 8.56 µM and 7.74 µM | 6.35 µM and 1.68 µM | 21.8 µM and 9.04 µM | 3.29 µM and 0.399 µM | 5.08 µM and 1.18 µM | 1.84 µM and 0.384 µM | 3.63 µM and 1.18 µM | 1.87 µM and 0.674 µM | 3.62 µM and 2.72 µM | 20.3 µM and 4.59 µM | 2.86 µM and 0.509 µM | 8.09 µM and 3.59 µM | 34.7 µM and 7.32 µM |  |  |  |  |  | 
2 | C=C1CCCC2OC(OC)CCC12 (centres undefined) |  |  |  |  |  | > 100 µM |  | > 100 µM |  | > 100 µM | > 100 µM |  |  | > 100 µM | > 100 µM | > 100 µM |  |  |  | 
3 | C=C1C(=O)O[C@H]2C3OC3(C)CC/C=C(/C(=O)OC)[C@@H](OC(C)=O)[C@H](OC(=O)C3(C)OC3C)[C@H]12 (some centres undefined) |  | 24.4 µM |  |  | 216 nM and 0.323 µg/mL | 4.68 µM and 10.4 µM and 6.03 µg/mL | 1.65 µM and 362 nM and 1.26 µg/mL | 3.73 µM and 8.4 µM and 3.45 µg/mL | 2.07 µM and 434 nM and 0.944 µg/mL | 6.36 µM and 3.12 µM and 2.75 µg/mL | 14.8 µg/mL |  | 29 µM | 31.6 µM and 17.5 µg/mL | 938 nM and 1.17 µg/mL | 4.26 µM and 5.4 µg/mL | 1.5 µM and 2.97 µM and 2.45 µg/mL | 1.69 µM and 2.85 µg/mL | 4.84 µg/mL | 9.7 µM and 12.5 µM and 5.5 µg/mL
4 | CCOC(=O)Nc1cc2c(c(N)n1)N=C(c1ccccc1)CN2 |  |  |  |  |  | 37.8 µM | < 0.0001 µM | 25.9 µM | < 0.0001 µM | 21.6 µM | 13.5 µM | < 0.0001 µM |  | 18.1 µM |  | 22.2 µM |  |  | < 0.0001 µM | < 0.0001 µM
5 | CC[C@@]1(O)C(=O)OCc2c1cc1n(c2=O)Cc2cc3cccc(N)c3nc2-1 |  |  |  |  | 2.35 µM | > 100 µM | 2.38 µM | 8.72 µM | 2.81 µM | 10.3 µM | 23.5 µM |  |  | > 100 µM | > 100 µM | 60.3 µM | 3.58 µM | 7.17 µM | 4.04 µM | 7.32 µM
6 | COc1ccc(C(=O)Nc2ccn(CCOC(=O)c3ccc(OC)cc3)c(=O)n2)cc1 |  |  |  |  |  | > 100 µM |  | > 100 µM |  | > 100 µM | > 100 µM |  |  | > 100 µM |  | > 100 µM |  |  |  | 
7 | CC(=O)OC(C)(C)C[N+](=O)[O-] |  |  |  |  |  | > 100 µM |  | > 100 µM |  | > 100 µM | > 100 µM |  |  | > 100 µM | > 100 µM |  |  |  |  | 
8 | Cl.[O-]c1cccc2cccnc12.[O-]c1cccc2cccnc12.[O-]c1cccc2cccnc12.[O-]c1cccc2cccnc12.[Ti+4] | > 100 µM | > 100 µM | 0.243 µM | 11.5 µM |  | > 91.1 µM | 0.567 µM | 4.41 µM | 2.62 µM | > 100 µM | > 100 µM | 10.5 µM | > 100 µM | 12 µM |  | 21.7 µM | 2.74 µM | 8.24 µM | 3.09 µM | 0.89 µM
9 | Cc1cc(C(=O)CC(Cl)=C(Cl)Cl)c(Cl)cc1Cl | 30.3 µM | 78.4 µM | 33.5 µM | > 100 µM |  | 44.7 µM | 22.1 µM | 42.1 µM | 18.1 µM | 39.4 µM | 54.8 µM | 16 µM | 40.4 µM | 65.9 µM |  | 51.5 µM | 19.5 µM | 18.2 µM | 19.9 µM | 23.7 µM
10 | COc1ccc(-c2nsc3c2NC(=O)CC3c2cccc(F)c2)cc1 (centres undefined) | 3.95 µM | > 100 µM | 2.96 µM | 16.7 µM | 5 µM | > 100 µM | 8.22 µM | > 100 µM | 5.95 µM | > 100 µM | > 100 µM | 5.29 µM | > 100 µM | > 100 µM | > 100 µM |  | 5.2 µM |  | 6.68 µM | 5.16 µM
11 | COC1/C=C/OC2(C)Oc3c(C)c(O)c4c(O)c(c(/C=N/N(c5ccccc5)c5ccccc5)c(O)c4c3C2=O)NC(=O)C(C)=C/C=C/C(C)C(O)C(C)C(O)C(C)C(OC(C)=O)C1C (centres undefined) | 1.19 µM | 4.33 µM | 3.76 µM | 12.6 µM |  | 7.46 µM | 1.63 µM | 5.96 µM | 1.75 µM | 7.13 µM | 8.82 µM | 2.37 µM | 7.96 µM | 7.8 µM |  | 7.42 µM | 1.81 µM | 1.63 µM | 2.18 µM | 2.11 µM
12 | O=C(O)C1C2C=CC(O2)C1C(=O)NCc1ccncc1 (centres undefined) |  | > 100 µM |  |  |  | > 100 µM |  | > 100 µM |  | > 100 µM | > 100 µM |  | > 100 µM | > 100 µM |  | > 100 µM |  |  |  | 
13 | CC(=O)CCn1[nH]c(=O)c(Cl)c(Cl)c1=O |  |  |  |  |  | > 100 µM |  | > 100 µM |  | > 100 µM | > 100 µM |  |  | > 100 µM | > 100 µM | > 100 µM |  |  |  | 
14 | COc1ccc2[nH]cc(C3(c4c[nH]c5ccc(OC)cc45)C(=O)Nc4ccc(Cl)cc43)c2c1 | 5.38 µM | > 100 µM | 9.98 µM | > 100 µM | 4.12 µM | 18.6 µM | 4.43 µM | 83.9 µM | 3.71 µM | 21.9 µM | 6.26 µM | 4.73 µM | 29.2 µM |  | 21.1 µM | 18.7 µM | 4.34 µM | 4.94 µM | 2.1 µM | 
15 | Cc1cc(=O)n2c(cc3cccccc32)n1 |  |  |  |  |  | > 100 µM |  | > 100 µM |  | > 100 µM | > 100 µM |  |  | > 100 µM | > 100 µM | > 100 µM |  |  |  | 
16 | CCCCCCCCC1C(C)c2c([nH]c3ccccc23)C2C(=O)N(c3ccccc3)C(=O)C21 (centres undefined) |  |  |  |  |  | 23.8 µM |  | 26.5 µM |  | 23.7 µM | 29.8 µM |  |  | 38 µM | 7.18 µM | 36.9 µM |  |  |  | 
17 | O=C(CO)CC(=O)C(=O)Nc1cccc(C(F)(F)F)c1 |  |  |  |  |  | > 100 µM |  | > 100 µM |  | > 100 µM | > 100 µM |  |  | > 100 µM | > 100 µM |  |  |  |  | 

— PubChem BioAssay (NCI)
